Measured values reported in patent US20070202116A1, “Treatment of micro-organism infection” (priority 2001, published 2007).
Where two headings read alike, the source gives them in different places.

Assays:
[1] = test system: MRSA strains (VISA and parent EMRSA-15); assay: MIC of vancomycin in the presence of Aurograb (Table 3); format: cell-based, S. aureus; settings: Staphylococcus aureus
Method: (§1) Strains of MRSA were grown overnight in nutrient broth and diluted to give an inoculum of 1×10^3 cells per mL. […] Cultures were incubated for a further 2 days. The minimum growth-inhibitory concentration (MIC) is defined as the […] concentration of antibiotic at which no bacterial growth occurs and is determined by spectrophotometric evaluation of the lack of turbidity (growth) in culture. MICs were determined in the presence of exogenous Aurograb or in the presence of Aurograb formulation buffer (negative control).

EMRSA strains = assay: MIC of vancomycin or flucloxacillin with and without Aurograb (Table 3a); format: cell-based, S. aureus; settings: Staphylococcus aureus
Method: as §1
The experiments were also performed using flucloxacillin instead of vancomycin to investigate how the efficacy of penicillin-type […] was affected by Aurograb.

Measured: MIC

CN[C@H](CC(C)C)C(=O)N[C@H]1C(=O)N[C@@H](CC(N)=O)C(=O)N[C@H]2C(=O)N[C@H]3C(=O)N[C@H](C(=O)N[C@H](C(=O)O)c4cc(O)cc(O)c4-c4cc3ccc4O)[C@H](O)c3ccc(c(Cl)c3)Oc3cc2cc(c3O[C@@H]2O[C@H](CO)[C@@H](O)[C@H](O)[C@H]2O[C@H]2C[C@](C)(N)[C@H](O)[C@H](C)O2)Oc2ccc(cc2Cl)[C@H]1O [Vancomycin, vancomycin]
< 0.125 µg/mL: [1]; read-out: MIC to Vancomycin in the presence of Aurograb, Parent EMRSA-15, Aurograb 125 μg/ml | [1]; read-out: MIC to Vancomycin in the presence of Aurograb, VISA EMRSA-1, Aurograb 125 μg/ml | [1]; read-out: MIC to Vancomycin in the presence of Aurograb, VISA EMRSA-2, Aurograb 125 μg/ml | [1]; read-out: MIC to Vancomycin in the presence of Aurograb, VISA EMRSA-8, Aurograb 125 μg/ml | [1]; read-out: MIC to Vancomycin in the presence of Aurograb, VISA EMRSA-11, Aurograb 125 μg/ml | [1]; read-out: MIC to Vancomycin in the presence of Aurograb, VISA EMRSA-12, Aurograb 125 μg/ml | [1]; read-out: MIC to Vancomycin in the presence of Aurograb, VISA EMRSA-15, Aurograb 125 μg/ml
2 µg/mL: [1]; read-out: MIC to Vancomycin in the presence of Aurograb, VISA EMRSA-1, Aurograb 80 μg/ml | [1]; read-out: MIC to Vancomycin in the presence of Aurograb, VISA EMRSA-8, Aurograb 60 μg/ml | [1]; read-out: MIC to Vancomycin in the presence of Aurograb, VISA EMRSA-12, Aurograb 80 μg/ml | [1]; read-out: MIC to Vancomycin in the presence of Aurograb, VISA EMRSA-15, Aurograb 80 μg/ml
0.0125 µg/mL: EMRSA strains; read-out: MIC to vancomycin + 100 μg/ml Aurograb, EMRSA strain 6, + 100 μg/ml Aurograb | EMRSA strains; read-out: MIC to vancomycin + 100 μg/ml Aurograb, EMRSA strain 8, + 100 μg/ml Aurograb | EMRSA strains; read-out: MIC to vancomycin + 100 μg/ml Aurograb, EMRSA strain 9, + 100 μg/ml Aurograb
0.5 µg/mL: [1]; read-out: MIC to Vancomycin in the presence of Aurograb, VISA EMRSA-2, Aurograb 60 μg/ml | EMRSA strains; read-out: MIC to vancomycin, EMRSA strain 1 | EMRSA strains; read-out: MIC to vancomycin, EMRSA strain 2 | EMRSA strains; read-out: MIC to vancomycin, EMRSA strain 3 | EMRSA strains; read-out: MIC to vancomycin, EMRSA strain 4 | EMRSA strains; read-out: MIC to vancomycin, EMRSA strain 5 | EMRSA strains; read-out: MIC to vancomycin, EMRSA strain 6 | EMRSA strains; read-out: MIC to vancomycin, EMRSA strain 7 | EMRSA strains; read-out: MIC to vancomycin, EMRSA strain 8 | EMRSA strains; read-out: MIC to vancomycin, EMRSA strain 9 | EMRSA strains; read-out: MIC to vancomycin, EMRSA strain 10 | EMRSA strains; read-out: MIC to vancomycin, EMRSA strain 11 | EMRSA strains; read-out: MIC to vancomycin, EMRSA strain 12 | EMRSA strains; read-out: MIC to vancomycin, EMRSA strain 13 | EMRSA strains; read-out: MIC to vancomycin, EMRSA strain 15 | EMRSA strains; read-out: MIC to vancomycin, EMRSA strain 16
0.25 µg/mL: [1]; read-out: MIC to Vancomycin in the presence of Aurograb, Parent EMRSA-15, Aurograb 80 μg/ml | EMRSA strains; read-out: MIC to vancomycin, EMRSA strain 14
8 µg/mL: [1]; read-out: MIC to Vancomycin in the presence of Aurograb, VISA EMRSA-1, Aurograb 0 μg/ml | [1]; read-out: MIC to Vancomycin in the presence of Aurograb, VISA EMRSA-8, Aurograb 0 μg/ml | [1]; read-out: MIC to Vancomycin in the presence of Aurograb, VISA EMRSA-12, Aurograb 0 μg/ml | [1]; read-out: MIC to Vancomycin in the presence of Aurograb, VISA EMRSA-15, Aurograb 0 μg/ml
0.03 µg/mL: EMRSA strains; read-out: MIC to vancomycin + 100 μg/ml Aurograb, EMRSA strain 1, + 100 μg/ml Aurograb | EMRSA strains; read-out: MIC to vancomycin + 100 μg/ml Aurograb, EMRSA strain 2, + 100 μg/ml Aurograb | EMRSA strains; read-out: MIC to vancomycin + 100 μg/ml Aurograb, EMRSA strain 3, + 100 μg/ml Aurograb | EMRSA strains; read-out: MIC to vancomycin + 100 μg/ml Aurograb, EMRSA strain 4, + 100 μg/ml Aurograb | EMRSA strains; read-out: MIC to vancomycin + 100 μg/ml Aurograb, EMRSA strain 5, + 100 μg/ml Aurograb | EMRSA strains; read-out: MIC to vancomycin + 100 μg/ml Aurograb, EMRSA strain 7, + 100 μg/ml Aurograb | EMRSA strains; read-out: MIC to vancomycin + 100 μg/ml Aurograb, EMRSA strain 10, + 100 μg/ml Aurograb | EMRSA strains; read-out: MIC to vancomycin + 100 μg/ml Aurograb, EMRSA strain 11, + 100 μg/ml Aurograb | EMRSA strains; read-out: MIC to vancomycin + 100 μg/ml Aurograb, EMRSA strain 12, + 100 μg/ml Aurograb | EMRSA strains; read-out: MIC to vancomycin + 100 μg/ml Aurograb, EMRSA strain 13, + 100 μg/ml Aurograb | EMRSA strains; read-out: MIC to vancomycin + 100 μg/ml Aurograb, EMRSA strain 14, + 100 μg/ml Aurograb | EMRSA strains; read-out: MIC to vancomycin + 100 μg/ml Aurograb, EMRSA strain 15, + 100 μg/ml Aurograb | EMRSA strains; read-out: MIC to vancomycin + 100 μg/ml Aurograb, EMRSA strain 16, + 100 μg/ml Aurograb
4 µg/mL: [1]; read-out: MIC to Vancomycin in the presence of Aurograb, VISA EMRSA-1, Aurograb 60 μg/ml | [1]; read-out: MIC to Vancomycin in the presence of Aurograb, VISA EMRSA-2, Aurograb 0 μg/ml | [1]; read-out: MIC to Vancomycin in the presence of Aurograb, VISA EMRSA-11, Aurograb 0 μg/ml | [1]; read-out: MIC to Vancomycin in the presence of Aurograb, VISA EMRSA-11, Aurograb 60 μg/ml | [1]; read-out: MIC to Vancomycin in the presence of Aurograb, VISA EMRSA-12, Aurograb 60 μg/ml | [1]; read-out: MIC to Vancomycin in the presence of Aurograb, VISA EMRSA-15, Aurograb 60 μg/ml
1 µg/mL: [1]; read-out: MIC to Vancomycin in the presence of Aurograb, Parent EMRSA-15, Aurograb 0 μg/ml | [1]; read-out: MIC to Vancomycin in the presence of Aurograb, VISA EMRSA-2, Aurograb 80 μg/ml | [1]; read-out: MIC to Vancomycin in the presence of Aurograb, VISA EMRSA-8, Aurograb 80 μg/ml | [1]; read-out: MIC to Vancomycin in the presence of Aurograb, VISA EMRSA-11, Aurograb 80 μg/ml
